According to patent publication US10495560B2, “Method of screening drugs” (KOREA RESEARCH INSTITUTE OF STANDARDS AND SCIENCE, priority 2015, dated 2019):

Columns and labels:
[1] = test system: ARPE-19 human retinal epithelial cells; assay: Blind test: screening of drugs by capacitance of the cell layer; type: cell-based
Protocol: After culturing ARPE-19 (retinal pigmented epithelium, American Type Culture Collection (ATCC), ATCC® CRL-2302™), which is human retinal epithelial cells, instead of bEND.3 similarly to the case of using bEND.3, the cultured ARPE-19 was seeded in the same sensor as that used at the time of measuring bEND.3 so that coverage was 100%. Then, stabilization (fixation) was performed under the same conditions and time as those at the time of stabilizing bEND.3.
After the cells were cultured for stabilization for 24 hours, the culture medium was exchanged.
As the exchanged medium, a reference culture medium containing tumor necrosis factor-alpha (TNF-α, R&D system, 210-TA-020/CF, 10 ng/ml) or a reference culture medium containing tumor necrosis factor-alpha (TNF-α, R&D system, 210-TA-020/CF 10 ng/ml) and TNF-α antibody (Human TNF-alpha MAb, R&D system, MAB610, 2 μg/ml) was prepared. In this case, as the reference culture medium, DMEM:F12 containing 1 vol % penicillin-streptomycin (Gibco) was used similarly to the case of using bEND.3.
After stabilization was performed, medium exchange was randomly performed on each well using the prepared culture media. In this case, medium exchange was performed on a well (reference sample) at a predetermined position using a pure reference culture medium not containing TNF-α or TNF-α antibody, such that a frequency-dependent reference capacitance value at each measurement time was also simultaneously obtained.
Capacitance was measured under the same conditions and the same time interval as those in the case of using bEND.3.
After measurement was performed, in each well, in the case in which an absolute value of an alpha value at a time point (t=50 h based on stabilization) after 26 hours of medium exchange is smaller than an absolute value of a reference alpha value at the same time point, the drug was screened as a drug increasing paracellular permeability. […]

[2] = test system: tight junction proteins (ZO-1) in ARPE-19 cells; assay: Immunocytochemistry (ZO-1 and DAPI staining) after the blind test; type: cell-based, human; conditions: FIG. 9
Protocol: After performing the screening, as described above, fluorescent staining (using ZO-1 and DAPI) was performed on the endothelial cell layer fixed between two electrodes using immunocytochemistry, and then the endothelial cell layer was observed. FIG. 9A illustrates results of the reference sample, FIG. 9B illustrates results of the sample of which the medium was exchanged with the medium containing TNF-α, and FIG. 9C illustrates results of the sample of which the medium was exchanged with the medium containing both of TNF-α and TNF-α antibody.

## TNF-α
[1]; 100 Hz, standardized to start of stabilization, 48 hours after medium exchange (t=72 h), reference sample 1.44
  standardized capacitance value: 1.31
[1]; 100 Hz, based on a time point (t=34 h) after 10 hours of medium exchange
  time for which the standardized capacitance value was continuously decreased: 48 h
[1]; TNF-α 10 ng/ml, three independent criteria (alpha value at 26 h, standardized capacitance at 48 h, continuous decrease at 100 Hz)
  screening result (drug increasing paracellular permeability): screened as wells contacting the drug increasing paracellular permeability
[2]
  alignment of tight junction proteins: disturbed
